From PubChem BioAssay AID248 (DTP/NCI, 2004)
Where “and” joins values, the source holds several entries; their conditions need not be identical. Equal values may be shown once. Inconclusive results and toxic doses are left out. No stated cut-off is given here; in the data, active means T/C of 150% or more; inactive means T/C below 125%.

System: L1210 leukemia ip in BDF1 mice, survival T/C
Test: NCI In Vivo Anticancer Drug Screen. Data for tumor model L1210 Leukemia (intraperitoneal) in B6D2F1 (BDF1) mice
Details: endpoint: mean survival time, higher = longer survival
Procedure, shortened: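 Each compound was tested against a transplantable tumor grown in mice. The endpoint was survival, with treated animals benchmarked against vehicle controls as a simple ratio.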

[1] = dose: 100.0 mg/kg/injection, schedule: Q01DX009 (ip), vehicle: saline with Tween-80
[2] = dose: 200.0 mg/kg/injection, schedule: Q01DX009 (ip), vehicle: saline with Tween-80
[3] = dose: 100.0 mg/kg/injection, schedule: Q04DX003 (ip), vehicle: Klucel (hydroxypropylcellulose) (HPC)
[4] = dose: 200.0 mg/kg/injection, schedule: Q04DX003 (ip), vehicle: Klucel (hydroxypropylcellulose) (HPC)
[5] = dose: 400.0 mg/kg/injection, schedule: Q04DX003 (ip), vehicle: Klucel (hydroxypropylcellulose) (HPC)
[6] = dose: 100.0 mg/kg/injection, schedule: Q01DX009 (ip), vehicle: saline
[7] = dose: 200.0 mg/kg/injection, schedule: Q01DX009 (ip), vehicle: saline
[8] = dose: 100.0 mg/kg/injection, schedule: Q01DX001 (ip), vehicle: saline
[9] = dose: 200.0 mg/kg/injection, schedule: Q01DX001 (ip), vehicle: saline
[10] = dose: 50.0 mg/kg/injection, schedule: Q01DX009 (ip), vehicle: Klucel (hydroxypropylcellulose) (HPC)
[11] = dose: 100.0 mg/kg/injection, schedule: Q01DX009 (ip), vehicle: Klucel (hydroxypropylcellulose) (HPC)
[12] = dose: 200.0 mg/kg/injection, schedule: Q01DX009 (ip), vehicle: Klucel (hydroxypropylcellulose) (HPC)
[13] = dose: 400.0 mg/kg/injection, schedule: Q01DX009 (ip), vehicle: Klucel (hydroxypropylcellulose) (HPC)
[14] = dose: 100.0 mg/kg/injection, schedule: Q04DX003 (ip), vehicle: saline
[15] = dose: 400.0 mg/kg/injection, schedule: Q01DX001 (ip), vehicle: saline

Measured: T/C

O=C(Nc1cccc(C2=NCCN2)c1)c1ccc2cc(C(=O)Nc3cccc(C4=NCCN4)c3)ccc2c1
inactive: dose: 7.5 mg/kg/injection, schedule: Q01DX Z (ip), vehicle: carboxymethylcellulose (CMC) 106 % of control | dose: 15.0 mg/kg/injection, schedule: Q01DX Z (ip), vehicle: carboxymethylcellulose (CMC) 104 % of control and 115 % of control | dose: 30.0 mg/kg/injection, schedule: Q01DX Z (ip), vehicle: carboxymethylcellulose (CMC) 104 % of control and 123 % of control | dose: 60.0 mg/kg/injection, schedule: Q01DX Z (ip), vehicle: carboxymethylcellulose (CMC) 119 % of control | dose: 120.0 mg/kg/injection, schedule: Q01DX Z (ip), vehicle: carboxymethylcellulose (CMC) 120 % of control

O=C(O)c1ccccc1S(=O)(=O)c1ccccc1
inactive: [1] 109 % of control | [2] 101 % of control | dose: 400.0 mg/kg/injection, schedule: Q01DX009 (ip), vehicle: saline with Tween-80 103 % of control

CCOC(=O)C(=Cc1ccccc1OC)C(=O)OCC
inactive: dose: 100.0 mg/kg/injection, schedule: Q01DX001 (ip), vehicle: Klucel (hydroxypropylcellulose) (HPC) 100 % of control | [3] 94 % of control | dose: 200.0 mg/kg/injection, schedule: Q01DX001 (ip), vehicle: Klucel (hydroxypropylcellulose) (HPC) 111 % of control | [4] 100 % of control | dose: 400.0 mg/kg/injection, schedule: Q01DX001 (ip), vehicle: Klucel (hydroxypropylcellulose) (HPC) 111 % of control | [5] 92 % of control

CN(CC1CCCCC1=O)CC1CCCCC1=O (stereo not drawn)
inactive: dose: 100.0 mg/kg/injection, schedule: Q01DX001 (ip), vehicle: steriod suspending solution 97 % of control | dose: 200.0 mg/kg/injection, schedule: Q01DX001 (ip), vehicle: steriod suspending solution 104 % of control | dose: 400.0 mg/kg/injection, schedule: Q01DX001 (ip), vehicle: steriod suspending solution 106 % of control

C=CCNC(=O)/C=C/C(=O)O
inactive: [6] 95 % of control | [7] 93 % of control

CCCCCCCN=C(N)c1ccc(C(=O)OCc2ccccc2)cc1
inactive: [8] 94 % of control | [9] 90 % of control

CN=C(N)C(C)SS(=O)(=O)O (stereo not drawn)
inactive: [10] 101 % of control | dose: 50.0 mg/kg/injection, schedule: Q04DX002 (ip), vehicle: Klucel (hydroxypropylcellulose) (HPC) 106 % of control | [11] 107 % of control | dose: 100.0 mg/kg/injection, schedule: Q04DX002 (ip), vehicle: Klucel (hydroxypropylcellulose) (HPC) 92 % of control | [12] 104 % of control | dose: 200.0 mg/kg/injection, schedule: Q04DX002 (ip), vehicle: Klucel (hydroxypropylcellulose) (HPC) 89 % of control and 91 % of control

Nc1cccc(OCc2cccc([N+](=O)[O-])c2)c1
inactive: dose: 100.0 mg/kg/injection, schedule: Q01DX001 (ip), vehicle: carboxymethylcellulose (CMC) 101 % of control | dose: 200.0 mg/kg/injection, schedule: Q01DX001 (ip), vehicle: carboxymethylcellulose (CMC) 90 % of control | dose: 400.0 mg/kg/injection, schedule: Q01DX001 (ip), vehicle: carboxymethylcellulose (CMC) 86 % of control

CCc1ccc(NC(=O)Nc2cccc(Cl)c2)cc1
inactive: [11] 92 % of control | [3] 102 % of control | [12] 89 % of control | [4] 102 % of control | [13] 99 % of control | [5] 98 % of control

O=C1CCCCC1C(O)(C(=O)c1ccccc1)c1ccccc1 (stereo not drawn) (tested in a mixture with another compound)
inactive: dose: 50.0 mg/kg/injection, schedule: Q01DX009 (ip), vehicle: saline with Tween-80 97 % of control | [1] 87 % of control | [2] 91 % of control

COC(=O)C(CCC(=O)CN1C(=O)c2ccccc2C1=O)N1C(=O)c2ccccc2C1=O (stereo not drawn)
inactive: dose: 100.0 mg/kg/injection, schedule: Q04DX003 (ip), vehicle: saline with Tween-80 101 % of control | dose: 200.0 mg/kg/injection, schedule: Q04DX003 (ip), vehicle: saline with Tween-80 99 % of control | dose: 400.0 mg/kg/injection, schedule: Q04DX003 (ip), vehicle: saline with Tween-80 87 % of control

CC12CCCCCCC1O2 (stereo not drawn)
inactive: dose: 75.0 mg/kg/injection, schedule: Q01DX001 (ip), vehicle: other 100 % of control | dose: 150.0 mg/kg/injection, schedule: Q01DX001 (ip), vehicle: other 89 % of control | dose: 300.0 mg/kg/injection, schedule: Q01DX001 (ip), vehicle: other 95 % of control

O=C(N1C(c2ccc(Cl)cc2)CC2(CC1c1ccc(Cl)cc1)SSC1(CC(c3ccc(Cl)cc3)N(C(=O)C(F)(F)F)C(c3ccc(Cl)cc3)C1)S2)C(F)(F)F (stereo not drawn)
inactive: [6] 102 % of control | [14] 95 % of control | [7] 98 % of control | dose: 200.0 mg/kg/injection, schedule: Q04DX003 (ip), vehicle: saline 97 % of control | dose: 400.0 mg/kg/injection, schedule: Q01DX009 (ip), vehicle: saline 105 % of control | dose: 400.0 mg/kg/injection, schedule: Q04DX003 (ip), vehicle: saline 95 % of control

O=c1[nH]cc(C2OC(CO)C(O)C2O)c(=O)[nH]1 (stereo not drawn)
inactive: dose: 100.0 mg/kg/injection, schedule: Q01DX005 (ip), vehicle: saline 119 % of control | dose: 200.0 mg/kg/injection, schedule: Q01DX005 (ip), vehicle: saline 97 % of control

CC1CCN(C(=S)[S-])CC1.CC1CCN(C(=S)[S-])CC1.[Zn]
inactive: dose: 12.5 mg/kg/injection, schedule: Q01DX009 (ip), vehicle: saline 111 % of control | dose: 25.0 mg/kg/injection, schedule: Q01DX009 (ip), vehicle: saline 107 % of control | dose: 50.0 mg/kg/injection, schedule: Q01DX009 (ip), vehicle: saline 100 % of control | [14] 103 % of control

CC(C)C1(c2ccsc2)NC(=O)NC1=O (stereo not drawn)
inactive: [8] 94 % of control | [9] 100 % of control | [15] 91 % of control

O=C(CCc1ccccc1)NC(=S)Nc1cc(C(F)(F)F)ccc1Cl
inactive: [11] 94 % of control | [12] 90 % of control | [13] 87 % of control

O=C(Nc1ccc(Cl)c(Cl)c1)NC(CO)(CO)CO
inactive: [8] 100 % of control | [9] 94 % of control | [15] 94 % of control

CCOC(=O)c1ccc(NCc2cnc(N)nc2N)cc1
inactive: [8] 97 % of control | [9] 90 % of control | [15] 90 % of control

O=c1[nH][nH]c(=S)c(=O)[nH]1
inactive: [8] 102 % of control | [9] 98 % of control | [15] 104 % of control

CCCCNC(=O)C1C=C2c3cccc4[nH]cc(c34)CC2N(C)C1 (stereo not drawn)
inactive: dose: 12.5 mg/kg/injection, schedule: Q01DX009 (ip), vehicle: Klucel (hydroxypropylcellulose) (HPC) 102 % of control | dose: 25.0 mg/kg/injection, schedule: Q01DX009 (ip), vehicle: Klucel (hydroxypropylcellulose) (HPC) 104 % of control | dose: 25.0 mg/kg/injection, schedule: Q04DX003 (ip), vehicle: Klucel (hydroxypropylcellulose) (HPC) 93 % of control | [10] 118 % of control | dose: 50.0 mg/kg/injection, schedule: Q04DX003 (ip), vehicle: Klucel (hydroxypropylcellulose) (HPC) 93 % of control | [3] 104 % of control | [4] 95 % of control

Cc1ccc(NC2=CC(=O)c3ccccc3C2=O)cc1
inactive: dose: 75.0 mg/kg/injection, schedule: Q01DX001 (ip), vehicle: carboxymethylcellulose (CMC) 93 % of control | dose: 150.0 mg/kg/injection, schedule: Q01DX001 (ip), vehicle: carboxymethylcellulose (CMC) 95 % of control

Cc1c2oc3c(C)ccc(C(=O)NCCN4CCOCC4)c3nc-2c(C(=O)NCCN2CCOCC2)c(N)c1=O
inactive: dose: 100.0 mg/kg/injection, schedule: Q04DX002 (ip), vehicle: saline with Tween-80 98 % of control | dose: 200.0 mg/kg/injection, schedule: Q04DX002 (ip), vehicle: saline with Tween-80 92 % of control

Cc1cccc(C)c1NS(=O)(=O)c1ccccc1
inactive: [11] 104 % of control | [3] 101 % of control | [12] 101 % of control | [4] 103 % of control | [13] 98 % of control | [5] 104 % of control

NCCCc1c(-c2ccccc2)nc(N)[nH]c1=O
inactive: dose: 50.0 mg/kg/injection, schedule: Q01DX001 (ip), vehicle: saline 108 % of control | [8] 110 % of control | [9] 98 % of control

Cc1cc(Cl)ccc1NC(=O)c1cccc(C(=O)Nc2ccc(Cl)cc2C)c1
inactive: [11] 97 % of control | [3] 98 % of control | [12] 92 % of control | [4] 90 % of control | [13] 87 % of control | [5] 93 % of control
